Experimental data: paper PMC7436000, “The Spectrum of Design Solutions for Improving the Activity-Selectivity Product of Peptide Antibiotics against Multidrug-Resistant Bacteria and Prostate Cancer PC-3 Cells” (Molecules, 2020)
≈ marks a conversion by molar mass, not a printed value. Like-named read-outs stand apart in the source and are kept apart here. Peptide text beside a SMILES is read from it.

Assays:
[1] = system: human primary dermal fibroblasts; format: cell-based
Description: (§1) Prostate cancer cells were donated by the University of Split, School of Medicine. Cells were cultured in RMPI-1640 medium, supplemented with 10% FBS, 1% Penicillin-Streptomycin, and 1% L-Glutamine. Human dermal fibroblasts were purchased from Biopredic (France) and cultured in DMEM medium, supplemented with 10% FBS and 1% Penicillin-Streptomycin. All cell lines were maintained in a humidified incubator with 5% CO2 at 37 °C. Cells were detached using the trypsin-EDTA solution and sub-cultured (7000 cells/well) in a 96-well plate overnight. Peptide stock solutions were prepared in PBS, and cancer cells were treated with 2-fold serial dilutions for 24 h at 37 °C, with 5% CO2. The toxicity of 6 selected peptides was assessed by a standard MTT assay. Treated cells were incubated with MTT working solution (0.5 mg/mL Thiazolyl Blue Tetrazolium Bromide) for 4 h at 37 °C with 5% CO2. Precipitated formazan was dissolved in 200 µL DMSO and absorbance was measured at 595 nm with EnSight Multimode Plate Reader (PerkinElmer, Inc.)

[2] = system: S. aureus clin. isolate; format: cell-based, Staphylococcus aureus
Source text: (§2) The American Type Culture Collection (ATCC, Rockville, MD, USA) strains and Escherichia coli MG1655 were used as standard bacterial strains. Gram-negative ATCC strains consisted of Escherichia coli (ATCC 25922), Pseudomonas aeruginosa (ATCC 27853), Acinetobacter baumannii (ATCC 19606), and Klebsiella pneumoniae (ATCC 13883). The only Gram-positive standard strain chosen for testing was Staphylococcus aureus (ATCC 29213). Clinical isolates with confirmed multidrug-resistance phenotype were obtained from different wards of the University Hospital Center, Split, Croatia. We described their origin, antibiograms, and resistance phenotype previously. In the same paper, we described the procedure for antimicrobial susceptibility testing on planktonic cells, using the microdilution method in 96-well microtiter plates.
(§3) Briefly, cells were grown on agar plates and a single colony was sampled to generate a liquid culture (LC) grown overnight at 37 °C. The culture was sampled, resuspended in fresh medium, and allowed to grow at 37 °C, until reaching the mid-exponential phase. Lysogeny broth (LB) was used in the case of the E. coli MG1655 cells. Mueller Hinton (MH) medium was used for all other bacterial strains. Serial 2-fold dilutions of the peptide (64 μM to 0.0625 μM) were prepared from peptide stock solution in PBS, and added to a final load of 5 × 10^5 CFU/mL in 100 μL total volume of medium per well in a 96-well plate (Brand 781660). Bacterial cultures were incubated with peptides for 18 h to 24 h at 37 °C. The minimum inhibitory concentration (MIC) was defined as the lowest concentration of the peptide, at which no visible bacterial growth was observed. The MIC for each of the tested peptides was determined in at least three individual assays under the same laboratory conditions. […] At the end of the incubation period for MIC or MBC, the determination of the OD600 was analyzed.

[3] = system: human erythrocytes; assay: Hemolysis of human erythrocytes; format: cell-based; details: for HC10: concentration causing 10% hemolysis, 0.2% Triton = 100%; for HC10 / HC20 / HC50: 0.5% RBC in PBS, 1 h, 37 °C, absorbance 450 nm, triplicate; for HC20: concentration causing 20% hemolysis; for HC50: concentration causing 50% hemolysis
Description: Fresh blood was obtained from a healthy donor. Blood was stored in a tube containing EDTA at 4 °C and used within 24 h. Before use, 1 mL of blood was centrifuged (400× g, 10 min), and the supernatant was discarded. Moreover, 500 μL cold PBS with EDTA (1 mM) was added, mixed and centrifuged. The supernatant was discarded. Furthermore, 500 μL of cold PBS with EDTA (1 mM) was added, from which a dilution of 1% blood was made. Peptides were prepared in PBS at a 2 × concentration in 100 µL. […] The suspension was incubated at 37 °C for 1 h and centrifuged at 10,000× g for 5 min. […] After centrifugation, the supernatant was added to a 96-well microtiter plate (150–180 μL), and the absorbance was measured at 450 nm, using EnSight Multimode Plate Reader (PerkinElmer, Inc.). Each measurement was done in triplicate. […] We opted to also include the extrapolated HC50 in our results, to permit comparisons with older toxicity results. However, the HC20 measurements were used for ranking the peptides according to their selectivity and overall performance (Figure 1 and Figure 2 and Table 2).

[4] = system: PC-3 prostate cancer cell line; format: cell-based, human
Description: as §1

[5] = system: K. pneum. clin. isolate; format: cell-based, Klebsiella pneumoniae
Source text: as §2, §3

[6] = system: Klebsiella pneumoniae (ATCC 13883); format: cell-based
Source text: as §2, §3

[7] = system: Acinetobacter baumannii (ATCC 19606); format: cell-based
Source text: as §2, §3

[8] = system: Escherichia coli (ATCC 25922); format: cell-based
Source text: as §2, §3

[9] = system: Escherichia coli MG1655; format: cell-based
Source text: as §2, §3

[10] = system: Staphylococcus aureus (ATCC 29213); format: cell-based
Source text: as §2, §3

[11] = system: Pseudomonas aeruginosa (ATCC 27853); format: cell-based
Source text: as §2, §3

[12] = system: A. baum. clin. isolate; format: cell-based, Acinetobacter baumannii
Source text: as §2, §3

[13] = system: P. aerug. clin. isolate; format: cell-based, Pseudomonas aeruginosa
Source text: as §2, §3

[14] = system: E. coli clin. isolate; format: cell-based, Escherichia coli
Source text: as §2, §3

[15] = MTT assay, 7000 cells/well, 24 h treatment, 37 °C, 5% CO2, absorbance 595 nm, read-out: IC50F (Fibroblasts)
[16] = MTT assay, 7000 cells/well, 24 h treatment, 37 °C, 5% CO2, absorbance 595 nm, read-out: IC50C (PC-3)
[17] = performance, product of TI and anticancer activity (1/IC50C)
[18] = relative performance with respect to MP1 control peptide
[19] = therapeutic index, fibroblasts vs PC-3
[20] = broth microdilution, LB medium, 5 × 10^5 CFU/mL, 18-24 h, 37 °C, at least three assays
[21] = multidrug-resistant clinical isolate, broth microdilution, MH medium, 18-24 h, 37 °C
[22] = broth microdilution, MH medium, 5 × 10^5 CFU/mL, 18-24 h, 37 °C

SMILES	IC50 ([1]; 24 h) [µM]	MIC (S. aureus clin. isolate) ([2]; clin. isolate) [µM]	HC10 [3] [µM]	HC20 [3] [µM]	HC50 [3] [µM]	(TI/ IC50C) vs. MP1 ([4]; 24 h)	IC50 ([4]; 24 h) [µM]	TI (HC20/IC20C) ([4]; 24 h)	TI (IC50F/IC50C) ([4]; 24 h)	TI/ IC50C ([4]; 24 h)	MIC (K. pneum. clin. isolate) [5] [µM]	MIC (K. pneum. ATCC 13883) ([6]; ATCC 13883) [µM]	MIC (A. baum. ATCC 19606) ([7]; ATCC 19606) [µM]	MIC (E. coli ATCC 25922) ([8]; ATCC 25922) [µM]	MIC (E. coli MG1655) ([9]; MG1655) [µM]	MIC (S. aureus ATCC 29213) ([10]; ATCC 29213) [µM]	MIC (P. aerug. ATCC 27853) ([11]; ATCC 27853) [µM]	MIC (A. baum. clin. isolate) [12] [µM]	MIC (P. aerug. clin. isolate) [13] [µM]	MIC (E. coli clin. isolate) ([14]; clin. isolate) [µM]	also measured
CC[C@H](C)[C@H](NC(=O)[C@H](CCCCN)NC(=O)[C@H](CC(C)C)NC(=O)[C@H](C)NC(=O)[C@H](CCCCN)NC(=O)[C@H](CC(C)C)NC(=O)[C@H](C)NC(=O)[C@@H](NC(=O)[C@H](CCCCN)NC(=O)[C@H](C)NC(=O)[C@@H](NC(=O)[C@@H](N)CCCCN)[C@@H](C)CC)C(C)C)C(=O)N[C@@H](C)C(=O)N[C@@H](CCCCN)C(=O)N[C@H](C(=O)N[C@@H](C)C(=O)N[C@@H](CC(C)C)C(=O)N[C@@H](CCCCN)C(=O)N[C@@H](C)C(=O)N[C@@H](CC(C)C)C(N)=O)C(C)C [PG2] (H-KIAKVALKALKIAKVALKAL-NH2)	10	1.5 (≈ 3.13 µg/mL)	3	14	18	6.8	6	6	1.7	0.28	12 (≈ 25.1 µg/mL)	3 (≈ 6.27 µg/mL)	1.5 (≈ 3.13 µg/mL)	1.5 (≈ 3.13 µg/mL)	16 (≈ 33.4 µg/mL)	0.75 (≈ 1.57 µg/mL)	6 (≈ 12.5 µg/mL)	1.5 to 3	6 (≈ 12.5 µg/mL)	6 (≈ 12.5 µg/mL)	
CC[C@H](C)[C@H](NC(=O)[C@H](CCCNC(=N)N)NC(=O)[C@H](C)NC(=O)[C@H](Cc1ccc(O)cc1)NC(=O)[C@H](CCCNC(=N)N)NC(=O)[C@H](CCCNC(=N)N)NC(=O)[C@H](Cc1c[nH]c2ccccc12)NC(=O)[C@H](Cc1c[nH]cn1)NC(=O)[C@H](Cc1c[nH]cn1)NC(=O)[C@@H](N)CCCNC(=N)N)C(=O)NCC(=O)N[C@@H](Cc1ccccc1)C(=O)N[C@@H](CCCNC(=N)N)C(=O)N[C@@H](C)C(=O)N[C@H](C(=O)N[C@@H](CCCNC(=N)N)C(=O)N[C@H](C(=O)N[C@H](C(=O)N[C@H](C(=O)NCC(=O)N[C@@H](CCCCN)C(N)=O)[C@@H](C)CC)C(C)C)[C@@H](C)O)C(C)C [T2R1] (H-RHHWRRYARIGFRAVRTVIGK-NH2)	80	4 (≈ 10.5 µg/mL)	3	25		30	8	5	10	1.25	2 to 4	2 (≈ 5.27 µg/mL)	2 (≈ 5.27 µg/mL)	1 (≈ 2.64 µg/mL)	4 (≈ 10.5 µg/mL)	0.5 (≈ 1.32 µg/mL)	1 (≈ 2.64 µg/mL)	8 (≈ 21.1 µg/mL)	8 (≈ 21.1 µg/mL)	4 (≈ 10.5 µg/mL)	HC50 * (extrapolated) ([3]; extrapolated, all concentrations tested lysed less than 50% of cells): 7000 * µM; PEa(20) = SI/MIC(aureus) ([10]; ATCC 29213, 18 h): 100 µM⁻¹
CC[C@H](C)[C@H](N)C(=O)N[C@@H](CC(=O)O)C(=O)N[C@@H](Cc1c[nH]c2ccccc12)C(=O)N[C@@H](CCCCN)C(=O)N[C@@H](CCCCN)C(=O)N[C@@H](CC(C)C)C(=O)N[C@@H](CC(C)C)C(=O)N[C@@H](CC(=O)O)C(=O)N[C@@H](C)C(=O)N[C@@H](C)C(=O)N[C@@H](CCCCN)C(=O)N[C@@H](CCC(N)=O)C(=O)N[C@H](C(=O)N[C@@H](CC(C)C)C(N)=O)[C@@H](C)CC [MP1, reference compound] (H-IDWKKLLDAAKQIL-NH2)			20	37	170																IC50 [1, 15]: 150 µM; IC50 [4, 16]: 60 µM; TI (HC20/IC20C) ([4]; human erythrocytes vs PC-3): 1; TI/ IC50C [4, 17]: 0.04; (TI/ IC50C) vs. MP1 [4, 18]: 1.0; TI (IC50F/IC50C) [4, 19]: 2.5; MIC (E. coli MG1655) [9, 20]: >32 µM
CC[C@H](C)[C@H](NC(=O)[C@H](CCCCN)NC(=O)[C@H](CCCCN)NC(=O)CNC(=O)[C@@H](NC(=O)[C@@H](N)CCCCN)[C@@H](C)CC)C(=O)N[C@@H](CC(C)C)C(=O)N[C@@H](CCCCN)C(=O)N[C@@H](C)C(=O)N[C@@H](CC(C)C)C(=O)N[C@@H](CCCCN)C(=O)NCC(=O)N[C@@H](C)C(=O)N[C@@H](CC(C)C)C(=O)N[C@@H](CCCCN)C(=O)N[C@@H](CCC(=O)O)C(=O)N[C@@H](CC(C)C)C(=O)N[C@@H](C)C(N)=O [MAPA] (H-KIGKKILKALKGALKELA-NH2)			1.7	3	20																IC50 [1, 15]: 25 µM; MIC (S. aureus clin. isolate) [2, 21]: 8 µM (≈ 15.4 µg/mL); IC50 [4, 16]: 8 µM; TI (HC20/IC20C) ([4]; human erythrocytes vs PC-3): 1; TI/ IC50C [4, 17]: 0.39; (TI/ IC50C) vs. MP1 [4, 18]: 9.3; TI (IC50F/IC50C) [4, 19]: 3.1; MIC (K. pneum. clin. isolate) [5, 21]: 8 µM (≈ 15.4 µg/mL); MIC (K. pneum. ATCC 13883) [6, 22]: 8 µM (≈ 15.4 µg/mL); MIC (A. baum. ATCC 19606) [7, 22]: 1 to 2 µM; MIC (E. coli ATCC 25922) ([8]; broth microdilution, MH medium, 5 × 10^5 CFU/mL, 18-24 h, 37 °C, at least three assays): 1 to 2 µM; MIC (E. coli MG1655) [9, 20]: 4 µM (≈ 7.69 µg/mL); MIC (S. aureus ATCC 29213) [10, 22]: 0.5 µM (≈ 0.961 µg/mL); PEa(20) = SI/MIC(aureus) ([10]; overall performance, product of SI (20) and 1/MIC, S. aureus ATCC 29213): 12 µM⁻¹; MIC (P. aerug. ATCC 27853) [11, 22]: 32 to 64 µM; MIC (A. baum. clin. isolate) [12, 21]: 4 µM (≈ 7.69 µg/mL); MIC (P. aerug. clin. isolate) [13, 21]: 32 µM (≈ 61.5 µg/mL); MIC (E. coli clin. isolate) ([14]; multidrug-resistant clinical isolate, broth microdilution, MH medium, 5 × 10^5 CFU/mL, 18-24 h, 37 °C): 8 to 16 µM
